Measured values published in US4595757A, “N-alkylated benzo- and hetero-fused antisecretory agents” (American Home Products Corporation, priority 1984, dated 1986).

How the values were obtained:
(H^+ +K^+)ATPase [1] = biological target: T1, (H^+ +K^+)ATPase (Rattus norvegicus, UniProt P09626); assay: Inhibition of dibutyryl cyclic AMP-stimulated 14C-aminopyrine uptake by rat gastric mucosal cells ((H^+ +K^+)ATPase inhibition); assay type: cell-based; details: 37° C., 2 hours
T1 construct: Rat gastric mucosal tissue is collected from 170-220 g male Sprague-Dawley rats; from tissue; host or cells: Dispersed gastric mucosal cells from male Sprague-Dawley rats (Pronase E digestion)
T1 sequence (P09626 whole entry): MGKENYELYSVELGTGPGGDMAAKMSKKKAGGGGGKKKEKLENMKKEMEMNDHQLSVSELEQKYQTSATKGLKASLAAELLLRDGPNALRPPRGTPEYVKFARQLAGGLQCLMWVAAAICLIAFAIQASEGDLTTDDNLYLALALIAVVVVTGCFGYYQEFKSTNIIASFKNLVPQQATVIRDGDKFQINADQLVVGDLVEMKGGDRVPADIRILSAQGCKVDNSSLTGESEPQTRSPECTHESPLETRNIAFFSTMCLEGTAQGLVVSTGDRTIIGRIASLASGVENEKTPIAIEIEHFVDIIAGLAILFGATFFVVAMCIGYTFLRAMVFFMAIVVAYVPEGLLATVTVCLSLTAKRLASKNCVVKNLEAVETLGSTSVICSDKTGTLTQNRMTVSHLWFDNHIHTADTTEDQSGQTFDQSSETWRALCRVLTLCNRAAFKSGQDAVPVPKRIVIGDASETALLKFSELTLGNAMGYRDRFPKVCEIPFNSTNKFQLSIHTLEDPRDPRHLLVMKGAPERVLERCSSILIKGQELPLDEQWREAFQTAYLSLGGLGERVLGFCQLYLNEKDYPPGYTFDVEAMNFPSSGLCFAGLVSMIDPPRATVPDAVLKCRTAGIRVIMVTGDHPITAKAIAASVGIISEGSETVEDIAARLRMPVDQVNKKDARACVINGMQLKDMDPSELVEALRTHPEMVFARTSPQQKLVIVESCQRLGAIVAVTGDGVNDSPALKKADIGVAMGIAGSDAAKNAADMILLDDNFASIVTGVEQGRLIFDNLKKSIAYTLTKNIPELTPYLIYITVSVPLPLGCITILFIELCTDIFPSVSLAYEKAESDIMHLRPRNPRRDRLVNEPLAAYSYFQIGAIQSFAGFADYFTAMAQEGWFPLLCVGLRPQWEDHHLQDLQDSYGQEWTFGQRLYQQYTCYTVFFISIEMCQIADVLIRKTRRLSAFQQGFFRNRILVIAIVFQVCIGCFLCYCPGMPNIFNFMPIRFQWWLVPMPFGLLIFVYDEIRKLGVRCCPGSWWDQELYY
T1 sequence (P18598 whole entry partner): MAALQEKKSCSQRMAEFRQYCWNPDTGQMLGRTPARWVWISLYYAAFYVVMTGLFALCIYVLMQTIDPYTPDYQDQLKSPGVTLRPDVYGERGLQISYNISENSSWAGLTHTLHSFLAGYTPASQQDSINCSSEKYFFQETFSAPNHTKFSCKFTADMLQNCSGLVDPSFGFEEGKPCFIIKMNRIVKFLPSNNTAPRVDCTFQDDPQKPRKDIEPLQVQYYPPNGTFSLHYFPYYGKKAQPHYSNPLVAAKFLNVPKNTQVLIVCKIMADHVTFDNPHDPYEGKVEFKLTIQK
Text: The procedures for these tests and the results for some of the compounds of the invention are presented at the end of the following examples, which will serve to illustrate the present invention. The determination of the rate of gastric acid secretion cannot be measured quantitatively with isolated gastric glands or cells. However, the acid secretory response can be monitored semiquantitatively by measuring the uptake of a radiolabelled weak base, ^14 C-aminopyrine (^14 C-AP), which accumulates in the glands in proportion to the pH differences between the intraglandular acid compartments and the surrounding medium. The following assay uses this effect in order to measure the ability of the compounds of the invention to inhibit gastric acid secretion by blocking (H^+ +K^+)ATPase. Rat gastric mucosal tissue is collected from 170-220 g male Sprague-Dawley rats. […] The Pronase E is poured off and the tissues are rinsed in a small amount of DNAse solution (2.5 mg DNAse in 10 ml of Hanks Balanced Salt Solution (HBE) with addition of 1 mg/ml of BSA and 0.76 mg/ml of EGTA). 4 ml of stock DNAse solution is added to 76 ml of HBE and aerated before use. The pH of the solution is adjusted to 7.5 with 2M Tris Buffer. The comminuted tissue is passed through nylon mesh into DNAse solution and incubated at ambient temperature for 20 minutes. The cells obtained thereby are dispersed, filtered through nylon mesh and centrifuged at 1000 RPM's for 7 minutes. […] Immediately before use, 6.1 mg of L-cysteine is dissolved in 5 ml RPMI-BSA. The final incubation medium is (by volume) 80% RPMI-BSA, 10% glucose/PA/IMX solution and 10% L-cysteine solution. For the actual assay procedure, microfuge tubes are prepared as follows: Into each tube are placed (a) 100 μl of the stimulant dibutyryl cyclic AMP made up in H2 O or an equal volume of distilled H2 O; (b) 100 μl of drug made up in RPMSI-BSA or an equal volume of RPMI-BSA; (c) 750 μl of the cell suspension; and (d) 50 μl of ^14 C-aminopyrine solution. The tubes are shaken in a 37° C. water bath in a O2 /CO2 (95/5%) atmosphere at about 110 cycles/minute, and incubated for 2 hours. The tubes are then microfuged for 30 seconds, the pellet surface rinsed with 500 μl RPMI-BSA and the cells dispersed in 500 μl distilled H2 O. The cells are then transferred to mini-scintillation vials with 5.75 ml of Hydrofluor, vortexed and counted in a Packard liquid scintillation counter. The inhibition of ^14 C-AP uptake is quantified from the scintillation count results and the IC50 for test compounds is calculated. The results for some of the compounds of the invention and for the two known (H^+ +K^+)ATPase inhibitors, omeprazole and timoprazole, are given in Table I.

[2] = test system: cold restraint/stress ulcerogenesis; assay: Cold restraint/stress ulcerogenesis assay (cytoprotective effect); assay type: in vivo; details: Rattus norvegicus; male rats, oral, cold (4±1° C.) restraint; read-out: Inhibition, ED50 (cold restraint/stress ulcers)
Protocol: The procedures for these tests and the results for some of the compounds of the invention are presented at the end of the following examples, which will serve to illustrate the present invention. The ability of the compounds of the invention to exert a cytoprotective effect is examined in the cold restraint/stress ulcerogenesis assay. Male Charles River rats weighing between 120-160 gm are deprived of food for 18 hours with water ad libitum. The rats are divided into groups of ten and dosed by the oral route with test compound, 50 mg/kg, or vehicle control, 0.5% carboxymethylcellulose, in a volume of 5 ml/kg. Immediately after dosing, the animals are inserted into aluminum restraining tubes measuring 15/8 inches in diameter by 8 inches and placed in the cold (4±1° C.). […] At the end of the test period the animals are killed, the duodenum and esophagus ligated, and the stomach removed. The stomachs are inflated with water, opened along the lesser curvature, spread over the index finger, and the mucosa wiped off to expose the submucosa. The number of hemorrhage sites in the submucosa are counted by visual observation and recorded. Compounds are reported by determining (A) a percent inhibition which is calculated as follows: [formula] or (B) a mean ulcer number ±S.E.M. for each drug treated group and comparing it to that calculated for the control group. The test results for a compound of the invention and for the known (H^+ +K^+)ATPhase inhibitors omeprazole and timoprazole, expressed as ED50 's, are as follows: […]

H2-receptor = biological target: T2, H2-receptor (Cavia porcellus, UniProt P47747); assay: Histamine-induced positive chronotropic response in the spontaneously beating right atrium of the guinea pig heart (H2-receptor antagonism); details: at a level of 1×10^-6 M; 30 minutes after addition
T2 construct: from tissue; host or cells: Guinea pig right atrium, spontaneously beating
T2 sequence (P47747 whole entry): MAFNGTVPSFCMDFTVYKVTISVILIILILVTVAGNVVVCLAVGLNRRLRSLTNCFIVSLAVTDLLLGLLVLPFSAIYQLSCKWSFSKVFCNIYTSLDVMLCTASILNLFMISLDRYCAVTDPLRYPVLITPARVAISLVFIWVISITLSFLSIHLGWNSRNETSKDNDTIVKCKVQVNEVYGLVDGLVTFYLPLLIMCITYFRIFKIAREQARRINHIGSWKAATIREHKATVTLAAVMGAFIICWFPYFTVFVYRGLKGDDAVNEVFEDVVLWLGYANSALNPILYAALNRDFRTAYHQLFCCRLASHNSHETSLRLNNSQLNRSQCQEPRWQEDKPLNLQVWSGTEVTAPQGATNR
Protocol: The tissue is allowed to stabilize over 1 hour. Individual contractions are recorded with a force-displacement transducer through a strain gauge coupler. […] The test compound is added to the tissue bath at the desired final concentration. Thirty minutes after addition of the compound, a fresh histamine dose response curve is again obtained. Then the response to histamine in the presence of antagonist is compared to the histamine control response. This procedure is repeated, using fresh tissues, for each concentration of antagonist tested.

[3] = test system: spontaneous gastric secretions; assay: Pyloric-ligated rat assay (inhibition of gastric acid output); assay type: in vivo; details: male rats, intraduodenal, 4 hours after pylorus ligation
Protocol: The procedures for these tests and the results for some of the compounds of the invention are presented at the end of the following examples, which will serve to illustrate the present invention. […] Male Charles River SC/CD rats weighing 190-260 gm are fasted for 24 hours with access to tap water ad libitum until the test. Groups of 10 rats each are assigned to either control or drug treatment. Under […] anesthesia, a midline laparotomy is performed and a ligature is tightly secured around the pylorus. Either control vehicle (0.25% aqueous methylcellulose) or drug in control vehicle is administered intraduodenally, 1 ml/kg, immediately after ligating the pylorus. The abdominal incision is closed with wound clips and the rats (2 per cage) are allowed to recover from anesthesia. After four hours the rats are sacrificed by CO2 asphyxiation. Their stomachs are removed and the accumulated gastric contents are emptied into graduated tubes. The gastric samples are centrifuged for 10 minutes. Samples contaminated with food or fecal material are discarded. The volume of gastric juice is recorded and the acid concentration of 1.0 ml sample aliquots is measured by electrometric titration to pH 7.0 using 0.1N sodium hydroxide. Titratable acid output is calculated in microequivalents and the percent inhibition of acid output is calculated as follows: [formula] The test results for a compound of the invention and for the known (H^+ +K^+)ATPase inhibitors omeprazole and timoprazole, expressed as ED50 's, are as follows: […]

(H^+ +K^+)ATPase [4] = details: Fellenius, Nature 220, 159-160 (1981); cited from earlier work
gastric secretions = details: cited from earlier work
[5] = test system: isolated guinea pig gastric mucosa; details: dibutyryl cyclic AMP stimulation after pretreatment with theophylline; cited from earlier work

| IC50 ((H^+ +K^+)ATPase [1]) [nM] | SMILES | ED50 [2] [mg/kg] | ED50 [3] [mg/kg] | further results |
| --- | --- | --- | --- | --- |
| 400 | O=S1(=O)N=C(N(CCCOc2cccc(CN3CCCCC3)c2)Cc2ccccc2)c2cscc21 [Example 1, N-(Phenylmethyl)-N-[3-[3-(1-piperidinylmethyl)phenoxy]propyl]thieno[3,4-d]isothiazol-3-amine 1,1-dioxide, ethanedioate (1:1)] | 6 | 8 | H2-receptor antagonist activity (guinea pig right atrium) (H2-receptor): inactive |
| 5000 | O=S1(=O)N=C(N(CCCOc2cccc(CN3CCCCC3)c2)Cc2ccc3c(c2)OCO3)c2cscc21 [Example 3, N-(1,3-benzodioxol-5-ylmethyl)-N-[3-[3-(1-piperidinylmethyl)phenoxy]propyl]thieno[3,4-d]isothiazol-3-amine 1,1-dioxide, ethanedioate (1:1)] | – | – | – |

Continued, molecule first:

| SMILES | IC50 ((H^+ +K^+)ATPase [1]) [nM] | ED50 [2] [mg/kg] | ED50 [3] [mg/kg] | further results |
| --- | --- | --- | --- | --- |
| O=S1(=O)N=C(N(CCCOc2cccc(CN3CCCCC3)c2)Cc2ccccc2)c2ccccc21 [Example 2, N-(Phenylmethyl)-N-[3-[3-(1-piperidinylmethyl)phenoxy]propyl]-1,2-benzoisothiazol-3-amine 1,1-dioxide, ethanedioate] | 100 | – | – | – |
| Nc1c(N(CCCOc2cccc(CN3CCCCC3)c2)Cc2ccc3c(c2)OCO3)c(=O)c1=O [Example 4] | 10000 | – | – | – |
| CN/C(=N/CCSCc1nc[nH]c1C)NC#N [cimetidine] | – | – | – | inhibition of proton transport by inhibition of (H^+ +K^+)ATPase ((H^+ +K^+)ATPase [4]): devoid of this activity; inhibition of gastric secretions (gastric secretions): inhibit only those gastric secretions which were agonized by histamine |
| COc1ccc2[nH]c([S+]([O-])Cc3ncc(C)c(OC)c3C)nc2c1 (centres unmarked) [omeprazole] | 10 | 12 | 6 | inhibition of proton transport by inhibition of (H^+ +K^+)ATPase ((H^+ +K^+)ATPase [4]): only omeprazole inhibited proton transport by the inhibition of (H^+ +K^+)ATPase; inhibition of stimulated secretion in isolated guinea pig gastric mucosa [5]: such stimulated secretion can be inhibited by omeprazole |
| [O-][S+](Cc1ccccn1)c1nc2ccccc2[nH]1 (centres unmarked) [timoprazole] | 1000 | 8 | 4 | – |
